Assay results from patent US20250353852A1, “COMPOUNDS AND COMPOSITIONS THAT INHIBIT PIKFYVE” (Kineta, Inc., priority 2021, published 2025).
pIC50: −log10 of the molar value.

Each compound was assayed against full-length human PIKFYVE (Homo sapiens (Human), UniProt Q9Y2I7, L932S/Q1183K/Q995L/S1033A/S696N/T998S) (assay: PIKfyve biochemical assay (ADP-Glo Kinase assay, Carna Biosciences)). Details: class symbols.
full-length human PIKFYVE, sequence (Q9Y2I7 whole entry S696N/L932S/Q995L/T998S/S1033A/Q1183K, the tested form may be a part): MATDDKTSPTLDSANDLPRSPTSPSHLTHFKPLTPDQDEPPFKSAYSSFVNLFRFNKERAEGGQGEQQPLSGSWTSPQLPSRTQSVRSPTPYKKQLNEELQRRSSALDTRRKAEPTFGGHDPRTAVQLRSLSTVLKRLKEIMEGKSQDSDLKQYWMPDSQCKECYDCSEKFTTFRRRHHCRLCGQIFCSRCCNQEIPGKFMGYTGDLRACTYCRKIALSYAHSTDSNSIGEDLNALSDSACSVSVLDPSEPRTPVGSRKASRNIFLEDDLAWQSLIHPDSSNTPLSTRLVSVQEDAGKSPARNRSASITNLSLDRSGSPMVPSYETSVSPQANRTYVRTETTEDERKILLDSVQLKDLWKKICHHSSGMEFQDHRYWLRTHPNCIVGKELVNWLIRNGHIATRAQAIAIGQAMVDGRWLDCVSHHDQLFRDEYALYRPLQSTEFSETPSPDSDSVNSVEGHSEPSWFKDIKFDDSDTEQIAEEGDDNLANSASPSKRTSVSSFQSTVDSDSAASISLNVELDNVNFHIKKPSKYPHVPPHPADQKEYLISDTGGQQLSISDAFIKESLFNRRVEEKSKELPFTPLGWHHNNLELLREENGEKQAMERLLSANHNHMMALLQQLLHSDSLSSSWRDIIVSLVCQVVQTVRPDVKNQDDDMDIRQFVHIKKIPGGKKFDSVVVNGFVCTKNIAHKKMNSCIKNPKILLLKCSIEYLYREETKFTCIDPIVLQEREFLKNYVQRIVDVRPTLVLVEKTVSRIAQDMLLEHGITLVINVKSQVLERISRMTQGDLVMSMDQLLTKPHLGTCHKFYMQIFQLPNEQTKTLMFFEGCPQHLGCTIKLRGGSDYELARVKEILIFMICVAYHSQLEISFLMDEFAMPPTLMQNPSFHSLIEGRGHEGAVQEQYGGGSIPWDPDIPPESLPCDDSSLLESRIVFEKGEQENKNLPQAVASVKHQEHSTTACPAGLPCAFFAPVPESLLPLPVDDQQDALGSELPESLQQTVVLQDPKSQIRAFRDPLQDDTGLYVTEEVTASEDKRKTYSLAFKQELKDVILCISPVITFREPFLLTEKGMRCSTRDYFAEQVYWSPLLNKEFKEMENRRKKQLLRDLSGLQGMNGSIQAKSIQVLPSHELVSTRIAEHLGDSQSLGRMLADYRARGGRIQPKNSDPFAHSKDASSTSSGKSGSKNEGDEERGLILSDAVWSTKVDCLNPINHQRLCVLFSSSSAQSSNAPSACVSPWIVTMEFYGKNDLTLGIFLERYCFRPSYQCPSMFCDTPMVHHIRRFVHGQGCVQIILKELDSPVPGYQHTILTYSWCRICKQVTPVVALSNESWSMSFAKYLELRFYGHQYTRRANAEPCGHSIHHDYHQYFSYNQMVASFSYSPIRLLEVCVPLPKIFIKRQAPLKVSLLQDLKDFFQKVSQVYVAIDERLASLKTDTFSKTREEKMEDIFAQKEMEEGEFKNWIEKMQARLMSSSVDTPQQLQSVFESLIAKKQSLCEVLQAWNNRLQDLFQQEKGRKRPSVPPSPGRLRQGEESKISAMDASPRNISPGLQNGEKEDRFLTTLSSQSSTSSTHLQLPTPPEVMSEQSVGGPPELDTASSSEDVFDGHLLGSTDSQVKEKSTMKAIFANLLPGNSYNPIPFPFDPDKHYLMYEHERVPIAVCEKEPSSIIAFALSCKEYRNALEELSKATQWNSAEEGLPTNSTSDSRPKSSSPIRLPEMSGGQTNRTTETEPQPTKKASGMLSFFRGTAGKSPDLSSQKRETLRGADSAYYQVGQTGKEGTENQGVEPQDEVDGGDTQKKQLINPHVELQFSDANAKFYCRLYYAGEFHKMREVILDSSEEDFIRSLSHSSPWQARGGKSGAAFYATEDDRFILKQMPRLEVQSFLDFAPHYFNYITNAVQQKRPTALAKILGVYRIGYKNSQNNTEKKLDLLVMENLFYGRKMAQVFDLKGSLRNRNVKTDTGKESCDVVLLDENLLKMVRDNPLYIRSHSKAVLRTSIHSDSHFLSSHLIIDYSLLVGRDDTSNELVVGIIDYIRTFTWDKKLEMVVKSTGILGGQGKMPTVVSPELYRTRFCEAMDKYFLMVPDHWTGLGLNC
Source text: PIKfyve Biochemical Assay. The biochemical […] inhibition assays were run by Carna Biosciences according to proprietary methodology based on the Promega […] Kinase assay. […] NP_055855.2] was expressed as N-terminal GST-fusion protein (265 kDa) using baculovirus expression system. GST-PIKFYVE was purified by using glutathione sepharose chromatography and used in an ADP-GloTM Kinase assay (Promega). Reactions were set up by adding the test compound solution, substrate solution, ATP solution and kinase solution, each at 4× final concentrations. Reactions were prepared with assay buffer (50 mM MOPS, 1 mM DTT, pH7.2), mixed, and incubated in black 384 well polystyrene plates for 1 hour at room temperature. ADP-Glo^TM reagent was then added for 40 minutes, followed by kinase detection reagent for an additional 40 minutes. The kinase activity was evaluated by detecting relative light units on a luminescence plate reader. […] IC50 values were calculated from concentration vs % inhibition curves by fitting to a four-parameter logistic curve. […] The biochemical […] inhibition assays were run by Carna Biosciences according to proprietary methodology based on the Promega ADP-GloTM Kinase assay. […] GST-PIKFYVE was purified by using glutathione sepharose chromatography and used in an ADP-GIoTM Kinase assay (Promega). Reactions were set up by adding the test compound solution, substrate solution, ATP solution and kinase solution, each at 4× final concentrations. Reactions were prepared with assay buffer (50 mM MOPS, 1 mM DTT, pH7.2), mixed, and incubated in black 384 well polystyrene plates for 1 hour at room temperature. ADP-GIoTM reagent was then added for 40 minutes, followed by kinase detection reagent for an additional 40 minutes. The kinase activity was evaluated by detecting relative light units on a luminescence plate reader. […] IC50 values were calculated from concentration vs % inhibition curves by fitting to a four-parameter logistic curve. […] The same compounds were also tested in both FAB1 and PIKFYVE TDP-43 yeast models.
With `O=c1ccc(-c2ccccc2)nn1-c1cc(N2CCOCC2)n2nc(-c3ccncc3)cc2n1` [Compound 3, 2-(7-morpholino-2-(pyridin-4-yl)pyrazolo[1,5-a]pyrimidin-5-yl)-6-phenylpyridazin-3(2H)-one] the pIC50 was 6.00 to 7.00.
`CN1CCN(c2cc(N3CCOCC3)n3nc(-c4ccncc4)cc3n2)C(Cc2ccccc2)C1=O` (centres unmarked) [Compound 28, 3-benzyl-1-methyl-4-(7-morpholino-2-(pyridin-4-yl)pyrazolo[1,5-a]pyrimidin-5-yl)piperazin-2-one] was tested, and the pIC50 was 5.00 to 6.00.
For `O=c1c(Br)c(Br)cnn1-c1cc(N2CCOCC2)n2nc(-c3ccncc3)cc2n1` [Compound 4, 4,5-dibromo-2-(7-morpholino-2-(pyridin-4-yl)pyrazolo[1,5-a]pyrimidin-5-yl)pyridazin-3(2H)-one], the pIC50 was 5.00 to 6.00.
Work on `CC1(CCc2ccn(-c3cc(N4CCOCC4)n4nc(-c5ccncc5)cc4n3)n2)CC1` [Compound 84, 4-(5-(3-(2-(1-methylcyclopropyl)ethyl)-1H-pyrazol-1-yl)-2-(pyridin-4-yl)pyrazolo[1,5-a]pyrimidin-7-yl)morpholine] yielded a pIC50 of 5.00 to 6.00.
`c1cncc(-n2ccc(-c3cc(N4CCOCC4)n4nc(-c5ccncc5)cc4n3)n2)c1` [Compound 13, 4-(5-(1-(pyridin-3-yl)-1H-pyrazol-3-yl)-2-(pyridin-4-yl)pyrazolo[1,5-a]pyrimidin-7-yl)morpholine] gave a pIC50 of 7.00 to 8.00.
Compound `Fc1cccc(-c2ccn(-c3cc(N4CCOCC4)n4nc(C5CCCO5)cc4n3)n2)c1` (centres unmarked) [Compound 94, 4-(5-(3-(3-fluorophenyl)-1H-pyrazol-1-yl)-2-(tetrahydrofuran-2-yl)pyrazolo[1,5-a]pyrimidin-7-yl)morpholine] has a pIC50 of 6.00 to 7.00.
In the case of `Oc1cc(-c2cc(N3CCOCC3)n3nc(-c4ccncc4)cc3n2)nn1-c1ccccc1` [Compound 57, 3-(7-morpholino-2-(pyridin-4-yl)pyrazolo[1,5-a]pyrimidin-5-yl)-1-phenyl-1H-pyrazol-5-ol], the pIC50 was 7.00 to 8.00.
In the case of `Fc1cccc(Oc2ncccc2-c2cc(N3CCOCC3)n3nc(-c4ccncc4)cc3n2)c1` [Compound 137, 4-(5-(2-(3-fluorophenoxy)pyridin-3-yl)-2-(pyridin-4-yl)pyrazolo[1,5-a]pyrimidin-7-yl)morpholine], the pIC50 was 6.00 to 7.00.
`c1ccc(Cc2cccnc2-c2cc(N3CCOCC3)n3nc(-c4ccncc4)cc3n2)cc1` [Compound 40, 4-(5-(3-benzylpyridin-2-yl)-2-(pyridin-4-yl)pyrazolo[1,5-a]pyrimidin-7-yl)morpholine] gave a pIC50 of 5.00 to 6.00.
For `c1ccc(-c2ccn(-c3cc(N4CCOCC4)n4nc(C5CCCO5)cc4n3)n2)cc1` (centres unmarked) [Compound 90, 4-(5-(3-phenyl-1H-pyrazol-1-yl)-2-(tetrahydrofuran-2-yl)pyrazolo[1,5-a]pyrimidin-7-yl)morpholine], the pIC50 was 7.00 to 8.00.
`CN1CC(=O)N(c2cc(N3CCOCC3)n3nc(-c4ccncc4)cc3n2)CC1c1ccccc1` (centres unmarked) [Compound 136, 4-methyl-1-(7-morpholino-2-(pyridin-4-yl)pyrazolo[1,5-a]pyrimidin-5-yl)-5-phenylpiperazin-2-one] was tested, and the pIC50 was 5.00 to 6.00.
Compound `Oc1cc(-c2ccccc2F)nn1-c1cc(N2CCOCC2)n2nc(-c3ccncc3)cc2n1` [Compound 53, 3-(2-fluorophenyl)-1-(7-morpholino-2-(pyridin-4-yl)pyrazolo[1,5-a]pyrimidin-5-yl)-1H-pyrazol-5-ol] has a pIC50 of 7.00 to 8.00.
`c1cc(-c2cc3nc(-n4ccc(C5CNC5)n4)cc(N4CCOCC4)n3n2)ccn1` [Compound 73, 4-(5-(3-(Azetidin-3-yl)-1H-pyrazol-1-yl)-2-(pyridin-4-yl)pyrazolo[1,5-a]pyrimidin-7-yl)morpholine] showed a pIC50 of 6.00 to 7.00.
In the case of `c1cc(-c2cc3nc(-n4ccc(C5CCCNC5)n4)cc(N4CCOCC4)n3n2)ccn1` (single isomer, unassigned) [Compound 75, 4-(5-(3-(piperidin-3-yl)-1H-pyrazol-1-yl)-2-(pyridin-4-yl)pyrazolo[1,5-a]pyrimidin-7-yl)morpholine], the pIC50 was 6.00 to 7.00.
Work on `c1ccc(-n2nccc2-c2cc(N3CCOCC3)n3nc(-c4ccncc4)cc3n2)cc1` [Compound 146, 4-(5-(1-phenyl-1H-pyrazol-5-yl)-2-(pyridin-4-yl)pyrazolo[1,5-a]pyrimidin-7-yl)morpholine] yielded a pIC50 of 6.00 to 7.00.
In the case of `O=C(CCCc1cc(N2CCOCC2)n2nc(-c3ccncc3)cc2n1)c1ccccc1` [Compound 113, 4-(7-morpholino-2-(pyridin-4-yl)pyrazolo[1,5-a]pyrimidin-5-yl)-1-phenylbutan-1-one], the pIC50 was 6.00 to 7.00.
`CN1CCC(c2cc(O)n(-c3cc(N4CCOCC4)n4nc(-c5ccncc5)cc4n3)n2)CC1` [Compound 56, 3-(1-methylpiperidin-4-yl)-1-(7-morpholino-2-(pyridin-4-yl)pyrazolo[1,5-a]pyrimidin-5-yl)-1H-pyrazol-5-ol] was tested, and the pIC50 was 6.00 to 7.00.
`c1ccc(C2CC(c3cc(N4CCOCC4)n4nc(-c5ccncc5)cc4n3)CN2)cc1` (centres unmarked) [Compound 112, 4-(5-(5-phenylpyrrolidin-3-yl)-2-(pyridin-4-yl)pyrazolo[1,5-a]pyrimidin-7-yl)morpholine] gave a pIC50 of 5.00 to 6.00.
`c1cncc(-c2ccn(-c3cc(N4CCOCC4)n4nc(C5CCCO5)cc4n3)n2)c1` (centres unmarked) [Compound 92, 4-(5-(3-(pyridin-3-yl)-1H-pyrazol-1-yl)-2-(tetrahydrofuran-2-yl)pyrazolo[1,5-a]pyrimidin-7-yl)morpholine] gave a pIC50 of 5.00 to 6.00.
In the case of `c1ccc(-c2ccn(-c3cc(N4CCOCC4)n4nc(C5CCOCC5)cc4n3)n2)cc1` [Compound 98, 4-(5-(3-phenyl-1H-pyrazol-1-yl)-2-(tetrahydro-2H-pyran-4-yl)pyrazolo[1,5-a]pyrimidin-7-yl)morpholine], the pIC50 was 6.00 to 7.00.
`COCC1(c2ccn(-c3cc(N4CCOCC4)n4nc(-c5ccncc5)cc4n3)n2)CC1` [Compound 83, 4-(5-(3-(1-(methoxymethyl)cyclopropyl)-1H-pyrazol-1-yl)-2-(pyridin-4-yl)pyrazolo[1,5-a]pyrimidin-7-yl)morpholine] gave a pIC50 of 6.00 to 7.00.
For `O=C1COC(c2ccccc2)CN1c1cc(N2CCOCC2)n2nc(-c3ccncc3)cc2n1` (centres unmarked) [Compound 135, 4-(7-morpholino-2-(pyridin-4-yl)pyrazolo[1,5-a]pyrimidin-5-yl)-6-phenylmorpholin-3-one], the pIC50 was 5.00 to 6.00.
`CN1CCN(c2cc(N3CCOCC3)n3nc(-c4ccncc4)cc3n2)C(Cc2ccccc2)C1` (centres unmarked) [Compound 118, 4-(5-(2-benzyl-4-methylpiperazin-1-yl)-2-(pyridin-4-yl)pyrazolo[1,5-a]pyrimidin-7-yl)morpholine] showed a pIC50 of 5.00 to 6.00.
For `OCCc1ccn(-c2cc(N3CCOCC3)n3nc(-c4ccncc4)cc3n2)n1` [Compound 80, 2-(1-(7-morpholino-2-(pyridin-4-yl)pyrazolo[1,5-a]pyrimidin-5-yl)-1H-pyrazol-3-yl)ethan-1-ol], the pIC50 was 6.00 to 7.00.
Work on `c1ccc(N2CC(c3cc(N4CCOCC4)n4nc(-c5ccncc5)cc4n3)C2)cc1` [Compound 121, 4-(5-(1-phenylazetidin-3-yl)-2-(pyridin-4-yl)pyrazolo[1,5-a]pyrimidin-7-yl)morpholine] yielded a pIC50 of less than 5.00.
Work on `Oc1c2c(nn1-c1cc(N3CCOCC3)n3nc(-c4ccncc4)cc3n1)CCCC2` [Compound 55, 2-(7-morpholino-2-(pyridin-4-yl)pyrazolo[1,5-a]pyrimidin-5-yl)-4,5,6,7-tetrahydro-2H-indazol-3-ol] yielded a pIC50 of 6.00 to 7.00.
`O=C1C(c2ccccc2)CCN1c1cc(N2CCOCC2)n2nc(-c3ccncc3)cc2n1` (centres unmarked) [Compound 23, 1-(7-morpholino-2-(pyridin-4-yl)pyrazolo[1,5-a]pyrimidin-5-yl)-3-phenylpyrrolidin-2-one] was tested, and the pIC50 was 6.00 to 7.00.
With `FC1(F)CNCC(c2ccn(-c3cc(N4CCOCC4)n4nc(-c5ccncc5)cc4n3)n2)C1` (centres unmarked) [Compound 74, 4-(5-(3-(5,5-difluoropiperidin-3-yl)-1H-pyrazol-1-yl)-2-(pyridin-4-yl)pyrazolo[1,5-a]pyrimidin-7-yl)morpholine] the pIC50 was 5.00 to 6.00.
`CC(C)(C)OC(=O)N1CCCC(c2cn(-c3cc(N4CCOCC4)n4nc(-c5ccncc5)cc4n3)cn2)C1` (centres unmarked) [Compound 15, tert-butyl 3-(1-(7-morpholino-2-(pyridin-4-yl)pyrazolo[1,5-a]pyrimidin-5-yl)-1H-imidazol-4-yl)piperidine-1-carboxylate] showed a pIC50 of 5.00 to 6.00.
With `Oc1cc(-c2cc(N3CCOCC3)n3nc(-c4ccncc4)cc3n2)nn1-c1cccc(F)c1` [Compound 59, 1-(3-fluorophenyl)-3-(7-morpholino-2-(pyridin-4-yl)pyrazolo[1,5-a]pyrimidin-5-yl)-1H-pyrazol-5-ol] the pIC50 was 7.00 to 8.00.

Same assay, conditions: numeric values
`c1ccc(Oc2nccc(-c3cc(N4CCOCC4)n4nc(-c5ccncc5)cc4n3)n2)cc1` [Compound 141, 4-(5-(2-phenoxypyrimidin-4-yl)-2-(pyridin-4-yl)pyrazolo[1,5-a]pyrimidin-7-yl)morpholine] was tested, and the pIC50 was 6.00.
For `Fc1cccc(-c2ccnn2-c2cc(N3CCOCC3)n3nc(-c4ccncc4)cc3n2)c1` [Compound 147, 4-(5-(5-(3-fluorophenyl)-1H-pyrazol-1-yl)-2-(pyridin-4-yl)pyrazolo[1,5-a]pyrimidin-7-yl)morpholine], the pIC50 was 5.80.
